Values joined by “and” are separate entries in the source; they are usually repeats but may differ in a detail not shown here. Equal entries are not always repeated. Peptide text beside a SMILES is read from it. * marks the point of attachment. Propyl(2R-PamO,3-PamO) = CCCCCCCCCCCCCCCC(=O)OC[C@H](C*)OC(=O)CCCCCCCCCCCCCCC
Columns and labels:
ICR mice [1] = test: NOAEL determination, i.p. injection of increasing doses, two-week observation; type: in vivo
Description: The dose of NOAEL (No Obvious Adverse Effects Level) was determined by injecting intraperitoneally (i.p) ICR mice with the increasing doses of CBLB601 (0.3, 1, 3, 10, 30, 60, 100 μg/mouse). Control mice were injected with PBS. […] During the first week they were weighed daily. […] Thus, NOAEL for CBLB601 was determined to be 30 μg/mouse.

ICR mice [2] = test: Radioprotection against total body gamma irradiation (TBI), 30-day survival; type: in vivo; conditions: for mice rescued (30-day survival): one experiment
Description: CBLB601, a R-Pam2-lipopeptide with the peptide moiety consisting of C-SKKKK (SEQ ID NO: 8), was selected for more detailed characterization as a radioprotector based upon its ability to activate NF-κB and preliminary in vivo data on radioprotection in NIH-SWISS mice (see Example 2). The objectives of this study were to determine the optimal dose, route of administration, and time of administration of CBLB601 to serve as a protector. ICR female mice of 10-15 weeks of age were used, with 10-15 animals per group or condition.
The optimal intraperitoneal administration schedule of CBLB601 was determined by injecting the compound at different times prior to irradiation. […] Therefore, all of the optimization experiments were performed with 10 Gy of total body irradiation (TBI). A dose of 3 μg of BCLB601/mouse (1/10 NOAEL) was chosen as the starting dose. Thus, 3 μg of CBLB601 was injected i.p. into ICR mice at 0.5 h, 1 h, 6 h, and 24 h or 1 h, 24 h, 48 h, 72 h, 96 h prior to 10 Gy of TBI (as described in Example 1). […] Injection of CBLB601 24 hrs before irradiation clearly yielded the best radioprotection (90-100% 30-day survival). When the compound was administered 48 hrs before irradiation, the radioprotection was ˜30%. Administration of CBLB601 at 1 hr prior to irradiation produced inconsistent results ranging from 80% protection in one experiment (FIG. 5B) to almost no protection (20%) in another experiment (FIG. 5A).
To determine the optimal radioprotective dose of CBLB601, the timing of injection and level of irradiation were kept constant, while the dose of CBLB601 was varied. ICR mice were injected i.p. with 1, 3, 10, 20, or 30 μg of CBLB601/mouse or 0.1, 0.3, 1, 3, 10, or […] 24 hrs prior to irradiation (10 Gy of TBI), and their survival was monitored for 30 days. The best protective dose was 3 μg/mouse, which supported a survival of 100% (FIGS. 6 A and B). […] Thus, the optimal protective dose of CBLB601 was determined to be 3 μg/mouse.
To determine the level of radiation that was protected by CBLB601, radioprotectant-treated and control mice were exposed to increasing levels of TBI. Groups of ICR mice were injected i.p. with either 3 μg CBLB601/mouse or PBS, and then 24 h later they received 10, 11, 12, 13, 14, and 15 Gy doses of TBI. Survival was recorded over 30 days. […] All of the mice irradiated with 10-11 Gy of TBI died between days 12-14 post irradiation, which was typical for death due to hematopoietic failure. All of the mice that received 14-15 Gy of TBI died between days 7-9 post irradiation, which was typical for mortality due to radiation-induced intestinal damage. Mice that were irradiated with 12-13 Gy of TBI died at intermediate times, which was typical for a mixed etiology of radiation-induced mortality. […] To reach a statistically significant 10% difference between control and CBLB601-treated mice, experimental groups of at least 50 mice must be used. Although CBLB601 rescued 100% of mice from 10 Gy of TBI, its protection at 11 Gy of TBI was only 20%. […] This may be indicative of a combined toxicity of the drug and the irradiation.
CBLB601 was administered intramuscularly to determine the optimal route of administration of this compound (especially since this would be the preferred route of administration for humans). […] In another experiment, increasing doses of CBLB601 administered i.m. were tested against 10, 11, and 12 Gy doses of […] (FIG. 9). […] A summary of the dose-dependency of the radioprotection of […] administered i.p. or i.m. 24 h prior to 10 Gy of TBI is shown in FIG. 10.
The optimal schedule of intramuscular administration of CBLB601 was determined by varying the time between drug delivery and irradiation. ICR mice were injected i.m. with 3 μg of CBLB601/mouse 24 h, 6 h, 3 h, and 1 h prior to TBI and +1 h, +3 h after TBI (FIG. 12A), as well as 48 h, 36 h, 24 h, 12 h, and 6 h prior to TBI (FIG. 12B). […]

[3] = 10 μg/mouse i.p. 24 hrs before 10 Gy TBI

## CCCCCCCCCCCCCCCC(=O)OC[C@H](CSC[C@H](N)C(=O)N[C@@H](CO)C(=O)N[C@@H](CCCCN)C(=O)N[C@@H](CCCCN)C(=O)N[C@@H](CCCCN)C(=O)N[C@@H](CCCCN)C(=O)O)OC(=O)CCCCCCCCCCCCCCC [CBLB601, R-PAM2C-SKKKK] (H-C(Propyl(2R-PamO,3-PamO))SKKKK-OH)
ICR mice [1]; 30 μg dose i.p.
  differences between treated and control mice: no noticeable differences
ICR mice [1]; 60 μg dose i.p., around 3-4 days after treatment
  morbidity: signs of morbidity, such as slow motion and scruffy fur
ICR mice [1]; 100 μg/mouse i.p., 1-2 days post-treatment
  mortality: Mortality was observed
ICR mice [1]; 0.3-100 μg/mouse i.p., weighed daily in first week
  body weight versus control mice: no differences in weight
ICR mice [1]; i.p., ICR mice
  NOAEL (No Obvious Adverse Effects Level): 30 μg/mouse
ICR mice [2]; 1 μg/mouse i.p. 24 hrs before 10 Gy TBI
  mice rescued (30-day survival): 90%
ICR mice [2]; 3 μg/mouse i.m. after (1 h and 3 h) 10 Gy TBI
  protective effect: no protective effect
ICR mice [2]; 3 μg/mouse i.m., 10 Gy TBI
  optimal time for intramuscular delivery prior to TBI: 24 h
ICR mice [2]; 3 μg/mouse i.p. 0.5 h before 10 Gy TBI
  radioprotection (30-day survival): 10%
ICR mice [2]; 3 μg/mouse i.p. 6 h before 10 Gy TBI
  radioprotection (30-day survival): 20%
ICR mice [2]; 3 μg/mouse i.p. 24 h before 11, 12 and 13 Gy
  kinetics of death versus PBS controls: died with an accelerated kinetics
ICR mice [2]; 3 μg/mouse i.p. 24 h before 11 Gy TBI
  protection (30-day survival): 20%
ICR mice [2]; 3 μg/mouse i.p. 24 h before TBI higher than 11 Gy (12-15 Gy)
  protection from irradiation: no protection
ICR mice [2]; 3 μg/mouse i.p. 24 hrs before 10 Gy TBI
  30-day survival: 90-100% and 100%
ICR mice [2]; 3 μg/mouse i.p. 48 hrs before 10 Gy TBI
  radioprotection (30-day survival): ~30%
ICR mice [2]; 3 μg/mouse i.p. 72 h before 10 Gy TBI
  radioprotection: No radioprotection
ICR mice [2]; 3 μg/mouse i.p. 96 h before 10 Gy TBI
  radioprotection: No radioprotection
ICR mice [2]; 10 μg/mouse i.m. 24 hr before 10 Gy TBI
  combined toxicity with irradiation: no sign of combined toxicity
ICR mice [2]; [3]
  combined toxicity with irradiation: Some signs of this combined toxicity were detectable
  mice rescued (30-day survival): 90%
ICR mice [2]; 20 μg/mouse i.p. 24 hrs before 10 Gy TBI
  mortality in combination with irradiation versus PBS: accelerated mortality
ICR mice [2]; 30 μg/mouse i.p. 24 hrs before 10 Gy TBI
  mortality in combination with irradiation versus PBS: accelerated mortality
ICR mice [2]; 1, 3 or 10 μg/mouse i.m. 24 hr before 10 Gy TBI
  radioprotection: imparted radioprotection
ICR mice [2]; 10, 30 μg i.m. prior to 10 Gy TBI
  mortality shift at higher doses: non-statistically significant shift to increased mortality
ICR mice [2]; 10 and 30 μg/mouse i.m. 1 h after 10 Gy TBI
  combined toxicity with irradiation: increased levels of combined toxicity
ICR mice [2]; i.m. administration
  therapeutic index (toxic dose/effective dose): 10-30
ICR mice [2]; i.m. and i.p., 24 h prior to 10 Gy TBI
  optimal dose: 3 μg/mouse
ICR mice [2]; i.m. delivery, 24 h prior to 10 Gy TBI
  effective dose per body weight: 0.06 to 0.115 mg/kg
ICR mice [2]; i.p.
  radioprotective dose relative to NOAEL (fold lower): 10-30 fold
ICR mice [2]; i.p. 24 hrs before 10 Gy TBI
  optimal protective dose: 3 μg/mouse
ICR mice [2]; i.p. administration
  therapeutic index (toxic dose/effective dose): 3-10
ICR mice [2]; i.p. delivery, 24 h prior to 10 Gy TBI
  effective dose per body weight: 0.09 to 0.11 mg/kg
ICR mice [2]; summary of Example 5
  therapeutic index: 3

— patent US8008260B2, “Methods of protecting against apoptosis using lipopeptides” (Cleveland Clinic Foundation, priority 2005, dated 2011)
